# Measured values from publication PMC3221503, “Study on Cytochrome P-450 Dependent Retinoic Acid Metabolism and its Inhibitors as Potential Agents for Cancer Therapy” (Scientia Pharmaceutica, 2011).
# Where two headings read alike, the source gives them in different places.
# Key:
# [1] = tested on: cytochrome P-450 dependent retinoic acid metabolism in male rat hepatic microsomes; assay: RA metabolism assay: in vitro inhibition of retinoic acid metabolism by P-450 inhibitors; conditions: inhibitor 100 μM, RA 3 μM, male rat hepatic microsomes 0.12 mg/ml, 37°C, 15 min, mean of three determinations, (-) denotes stimulation of RA metabolism
# Description: (§1) Controls (10 μl, DMSO) were also carried with each experiment.
# (§2) The assay followed a previously described one [17]: The column was a 10 μm C18 μ Bondapak (3.9× 300mm, Millipore) and the mobile phase was acetonitrile: water: formic acid (75:25:0.05v/v) containing 10 mM ammonium acetate. Flow rate was 1.2 ml.Min^−1. Eluted ^3H compounds were detected on line by a model 970 detector (Reeve) using Hisafe III scintillation fluid. The retention time of ^3H-RA was 10 min and oxidative metabolites of ^3H-RA were detected, eluting samples over 3 to 7 min. Metabolism was determined from the % conversion of RA into its total metabolites based on AUC values.
# (§3) Three separate experiments (each with triplicate tubes) were carried out.
# (§4) The IC50 for ketoconazole and liarozole were determined for comparative purposes.
# (§5) The IC50 was calculated from a plot of percentage inhibition versus log inhibitor concentration using Cricket Graph 1.3.
# [2] = tested on: cytochrome P-450 dependent retinoic acid metabolism; assay: as above; conditions: male, rat
# Description: as §1, §2, §3, §4, §5
# [3] = tested on: cytochrome P-450 dependent retinoic acid metabolism in male rat hepatic microsomes; conditions: pH 7.4
# Description: as §1, §2, §3, §4, §5
# [4] = design: method as in PMID 1328295; conditions: cleared from the plasma; cited from earlier work
# [5] = tested on: mouse embryo; design: method as in PMID 1965892; conditions: cited from earlier work
# [6] = rat liver microsomes, pH 7.4, probe 3H-retinoic acid (RA), 3 μM
smiles,measurement,setting,value
c1ccc(Cn2ccnc2)cc1 [1-Benzylimidazole],% Inhibition of retinoic acid metabolism,[1],7.6%
"c1csc(-c2nnco2)c1 [2-(Thiophen-2-yl)-1,3,4-oxadiazole]","inhibition at 15 min, 100 μM",[2]; [6],0%
"Cc1nc2cc(-c3ccccc3)ccc2o1 [2-Methyl-5-phenyl-1,3-benzoxazole]","inhibition at 15 min, 100 μM",[2]; [6],18%
"Brc1ccc(-c2csnn2)cc1 [4-(4-Bromophenyl)-1,2,3-thiadiazole]","inhibition at 15 min, 100 μM",[2]; [6],11.6%
O=c1cc(O)c2ccccc2o1 [4-Hydroxycoumarin],% Inhibition of retinoic acid metabolism,[1],38.50%
"Clc1cccc(-c2cnco2)c1 [5-(3-Chlorophenyl)-1,3-oxazole]","inhibition at 15 min, 100 μM",[2]; [6],8.6%
"Cc1ccc(-c2ncns2)cc1 [5-(4-Methylphenyl)-1,2,4-thiadiazole]","inhibition at 15 min, 100 μM",[2]; [6],4.8%
COc1ccc2ccc(=O)oc2c1 [7-Methoxycoumarin],"inhibition at 15 min, 100 μM",[2]; [6],11.7%
CCC1(c2ccc(N)cc2)CCC(=O)NC1=O (stereo not drawn) [Aminoglutethimide],"inhibition at 15 min, 100 μM",[2]; [6],30.8%
C[C@@H]1[C@H](O)[C@@H](C)/C=C/C=C/C=C/C=C/C=C/C=C/C=C/[C@H](O[C@@H]2O[C@H](C)[C@@H](O)[C@H](N)[C@@H]2O)C[C@@H]2O[C@](O)(C[C@@H](O)C[C@@H](O)[C@H](O)CC[C@@H](O)C[C@@H](O)CC(=O)O[C@H]1C)C[C@H](O)[C@H]2C(=O)O [Amphotericin],"inhibition at 15 min, 100 μM",[2]; [6],6.24%
CC(=O)Oc1ccccc1C(=O)O [Aspirin],"inhibition at 15 min, 100 μM",[2]; [6],5%
C[C@@H](Cc1ccccc1)N(C)Cc1ccccc1 [Benzphetamine],% Inhibition of retinoic acid metabolism,[3],46.0%
c1ccc(-c2ccc(C(c3ccccc3)n3ccnc3)cc2)cc1 (stereo not drawn) [Bifonazole],"inhibition at 15 min, 100 μM",[2]; [6],47.5%
CN(C)CCCN1c2ccccc2Sc2ccc(Cl)cc21 [Chlorpromazine],% Inhibition of retinoic acid metabolism,[1],85.0%
same,% Inhibition of retinoic acid metabolism,[1]; listed as chlorpromazine,> 50%
same,IC50 at 15 min,[2]; [6],16.9 ± 1.7 µM
CN/C(=N/CCSCc1nc[nH]c1C)NC#N [Cimetidine],"inhibition at 15 min, 100 μM",[2]; [6],1%
Clc1ccccc1C(c1ccccc1)(c1ccccc1)n1ccnc1 [Clotrimazole],"inhibition at 15 min, 100 μM",[2]; [6],34.4%
O=c1ccc2ccccc2o1 [Coumarin],"inhibition at 15 min, 100 μM",[2]; [6],37%
O=C(O)c1cc(-c2ccc(F)cc2F)ccc1O [Diflunisal],"inhibition at 15 min, 100 μM",[2]; [6],2%
Clc1ccc(COC(Cn2ccnc2)c2ccc(Cl)cc2Cl)cc1 (stereo not drawn) [Econazole],"inhibition at 15 min, 100 μM",[2]; [6],14%
COC1=CC(=O)C[C@@H](C)[C@]12Oc1c(Cl)c(OC)cc(OC)c1C2=O [Griseofulvin],"inhibition at 15 min, 100 μM",[2]; [6],0%
NCCc1c[nH]cn1 [Histamine],"inhibition at 15 min, 100 μM",[2]; [6],0%
COc1ccc2c(c1)c(CC(=O)O)c(C)n2C(=O)c1ccc(Cl)cc1 [Indomethacin],"inhibition at 15 min, 100 μM",[2]; [6],0%
CCC(C)n1ncn(-c2ccc(N3CCN(c4ccc(OCC5COC(Cn6cncn6)(c6ccc(Cl)cc6Cl)O5)cc4)CC3)cc2)c1=O (stereo not drawn) [Itraconazole],% Inhibition of retinoic acid metabolism,[1],68.7%
same,IC50 at 15 min,[2]; [6],17.4 ± 1 µM
same,"inhibition at 15 min, 100 μM",[2]; [6],> 50%
CC(=O)N1CCN(c2ccc(OCC3COC(Cn4ccnc4)(c4ccc(Cl)cc4Cl)O3)cc2)CC1 (stereo not drawn) [Ketoconazole],IC50 at 15 min,[2]; [6],13.5 ± 1.3 µM
same,"inhibition at 15 min, 100 μM",[2]; [6],87.5%
Clc1cccc(C(c2ccc3[nH]cnc3c2)n2ccnc2)c1 (stereo not drawn) [Liarozole],IC50 at 15 min,[2]; [6],4.2 ± 0.1 µM
same,"inhibition at 15 min, 100 μM",[2]; [6],89%
Clc1ccc(COC(Cn2ccnc2)c2ccc(Cl)cc2Cl)c(Cl)c1 (stereo not drawn) [Miconazole],"inhibition at 15 min, 100 μM",[2]; [6],13.5%
c1ccc(CCNCc2ccccc2)cc1 [N-Benzyl-2-phenylethanamine],% Inhibition of retinoic acid metabolism,[1],85.0%
same,% Inhibition of retinoic acid metabolism,[1]; listed as N-benzyl-2-phenylethanamine,> 50%
same,IC50 at 15 min,[2]; pH 7.4,17.1 ± 3.2 µM
O=C(Cn1ccnc1)c1ccc2ccccc2c1 [Nafimidone],"inhibition at 15 min, 100 μM",[2]; [6],12%
CCC1(c2ccc([N+](=O)[O-])cc2)CCC(=O)NC1=O (stereo not drawn) [Nitroglutethimide],% Inhibition of retinoic acid metabolism,[1],−1.4%
C[C@@H]1[C@H](O)[C@@H](C)/C=C/C=C/CC/C=C/C=C/C=C/C=C/C(O[C@H]2O[C@H](C)[C@@H](O)[C@H](N)[C@@H]2O)CC2O[C@](O)(CC(O)C(O)CCC(O)CC(O)CC(O)CC(=O)O[C@H]1C)CC(O)C2C(=O)O (stereo partly drawn) [Nystatin],% Inhibition of retinoic acid metabolism,[1],5.44%
CCC1(c2ccccc2)C(=O)NC(=O)NC1=O [Phenobarbitone],% Inhibition of retinoic acid metabolism,[3],0.0%
CN1C(=O)CC(c2ccccc2)C1=O (stereo not drawn) [Phensuximide],"inhibition at 15 min, 100 μM",[2]; [6],3.5%
CCCC(C(=O)OCCN(CC)CC)(c1ccccc1)c1ccccc1 [Proadifen],% Inhibition of retinoic acid metabolism,[1],86.0%
same,% Inhibition of retinoic acid metabolism,[1]; listed as proadifen,> 50%
same,IC50 at 15 min,[2]; [6],1 ± 0.14 µM
CC(=O)C[C@H](c1ccccc1)c1c(O)c2ccccc2oc1=O [R-Warfarin],% Inhibition of retinoic acid metabolism,[1],3.0%
"CC1=C(/C=C/C(C)=C/C=C/C(C)=C/C(=O)O)C(C)(C)CCC1 [RA, All-trans-retinoic acid]",plasma t ½,[4],< 1 h
same,developmental / teratogenic effect,"[5]; dose of 1 mg/Kg RA, mice",no teratogenic effects
same,increase in the level of RA in mouse embryo limb buds,[5]; dose of 10 mg/Kg body weight of RA,approximately 50 fold
same,developmental / teratogenic effect,"[5]; dose of 10 mg/Kg body weight of RA, mouse",developmental abnormalities
CC(=O)C[C@@H](c1ccccc1)c1c(O)c2ccccc2oc1=O [S-Warfarin],% Inhibition of retinoic acid metabolism,[1],6.5%
c1ccc2[nH]c(-c3cscn3)nc2c1 [Thiabendazole],"inhibition at 15 min, 100 μM",[2]; [6],-4.31%
O=C(O)/C=C\C(=O)O.S=C(NC1CCCCC1)N1CCC(c2cnc[nH]2)CC1 [Thiopermide maleate],% Inhibition of retinoic acid metabolism,[1],3.4%
